# From publication PMC4818757, “Small molecule inhibitors of the Dishevelled‐CXXC5 interaction are new drug candidates for bone anabolic osteoporosis therapy” (EMBO Molecular Medicine, 2016)
# Tests used:
# [1] = test system: TA-98; details: TA-98, Without S-9 mix
# Excerpt: (§1) Appendix Table S3. Bacterial reverse mutation assay with KY-02327
# (§2) a Number of revertant colonies of treated plate/Number of revertant colonies of
# (§3) vehicle control plate (Maron & Ames, 1983).
# (§4) b Negative control. Vehicle: DMSO
# [2] = test system: TA-100; details: TA-100, Without S-9 mix
# Excerpt: as §1, §2, §3, §4
# [3] = molecular target: CYP C29 (so in the source); probably CYP2C9) (Homo sapiens, UniProt P11712); experiment: Cytochrome P450 inhibition assay, C29
# Chain of CYP C29 (so in the source); probably CYP2C9) (P11712 whole entry): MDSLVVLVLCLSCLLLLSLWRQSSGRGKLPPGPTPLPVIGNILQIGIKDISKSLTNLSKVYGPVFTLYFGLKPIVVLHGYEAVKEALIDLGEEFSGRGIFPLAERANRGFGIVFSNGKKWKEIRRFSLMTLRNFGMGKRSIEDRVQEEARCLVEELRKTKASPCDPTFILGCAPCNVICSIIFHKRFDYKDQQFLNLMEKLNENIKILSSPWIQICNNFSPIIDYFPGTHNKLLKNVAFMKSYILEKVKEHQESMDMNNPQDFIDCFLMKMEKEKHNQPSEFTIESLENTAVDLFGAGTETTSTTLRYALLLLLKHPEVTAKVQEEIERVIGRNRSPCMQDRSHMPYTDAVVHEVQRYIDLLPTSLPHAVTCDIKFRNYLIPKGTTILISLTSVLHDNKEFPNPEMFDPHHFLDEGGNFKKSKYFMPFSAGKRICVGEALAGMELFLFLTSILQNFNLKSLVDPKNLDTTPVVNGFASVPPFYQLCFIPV
# Excerpt: Appendix Table S4. Cytochrome P450 (CYP) inhibition assay with 10 µ M KY-
# [4] = test system: ovariectomized (OVX) mice; experiment: OVX-induced osteoporosis mouse model; type: in vivo; details: KY‐02327 20 mpk oral, PTH 0.06 mpk subcutaneous
# Description: Figure 6 Effects of KY‐02327 on OVX‐induced osteoporosis model mice • A–H Vehicle or 20 mg of KY‐02327 per kg of animal body weight (mpk) was orally administered or 0.06 mpk of the N‐terminal fragment of PTH (amino acids 1‐34) was subcutaneously injected into the Sham‐operated (Sham) or ovariectomized (OVX) mice on 5 sequential days per week for 4 weeks (n = 4). After calcein injection, the prepared femoral sections of the OVX mice were examined under fluorescence microscope to visualize integrated calcein (A, green, arrows). Nuclei were counterstained with DAPI (A, blue). Scale bars, 100 μm. Osteoblast numbers (B) and calcein double‐labeled surfaces (C) were measured in the femoral sections. The mouse femurs were analyzed using micro‐CT, and BMD (D) and BV/TV (E) were calculated from the micro‐CT data. The three‐dimensional images of femoral trabecular bone were reconstructed (F), and trabecular number (G) and trabecular separation (H) were calculated. Data Information: The data are the mean ± s.d. (error bars). Significance was assessed using Kruskal–Wallis test.
# This animal study was approved by the Institutional Review Board of Severance Hospital, Yonsei University College of Medicine. The mice were housed in filter‐topped shoebox cages with a computerized environmental control system (MJ LTD, Seoul, Korea). The care and treatment of experimental animals were performed in accordance with institutional guidelines. The room temperature was maintained at 26.5°C with a relative humidity of approximately 40–70%. The mice were given a standard maintenance diet from Dae Han Bio Link (Daejeon, Korea). For OVX mouse experiments, the surgeries were performed with 8‐week‐old female BL6 mice under anesthesia with avertin (2,2,2‐tribromoethanol; Worthington Biochemical, Freehold, NJ) as described previously (Zahoor et al, 2014). After removing the hair, dorsal incisions were made into the dermal layers above both sides of the ovaries using dissection scissors. The connection between the fallopian tube and the uterine horn was cut, and the ovary was removed. The incision was then sutured with 3 single catgut stitches. Sham mice were used as controls. After 4 weeks, the OVX group was divided into three groups for oral administration of vehicle (saline containing 10% Tween‐60) or 20 mg of KY‐02327 per kg of animal body weight (mpk) of KY‐02327, or for subcutaneous injection of 0.06 mpk of N‐terminal fragment of PTH (amino acids 1–34), which were administered for 5 sequential days per week for 4 weeks. The animals were sacrificed, and the organs were harvested for analysis. For the calcein double‐labeling experiment (Pall et al, 1987), calcein (10 mpk in 2% sodium hydrocarbonate, pH 7.4) was injected twice, on the last day of the 2nd and 3rd week. All the mice were randomly assigned to each groups, and the investigators were blinded to the group allocation during the treatments and experiments.
# The mouse femurs were scanned using a micro‐CT system (Skyscan 1072; Skyscan, Aartselaar, Belgium). The scanned image data were reconstructed to create 3D images and analyzed using the CT‐Analyzing Program (Skyscan). For femoral trabecular bone analysis, the femurs were scanned with a voxel size of 10 μm, beginning at the end of the growth plate and extending proximally along the diaphysis, and 80 continuous slices (beginning at 0.1 mm from the most proximal aspect of the growth plate in which both condyles were no longer visible) were selected for analysis.
# The femurs of OVX mice and the calvariae of 4‐day‐old mice were fixed in 4% paraformaldehyde in PBS. The bones were then decalcified in 10 mM EDTA and embedded in paraffin. Five‐micrometer tissue sections were deparaffinized in 100% xylene followed by re‐hydration with sequential 100% to 50% ethanol washes. The sections were stained with hematoxylin and eosin (H&E), and light micrographs were captured using a SMZ645 Nikon microscope (Nikon, Tokyo, Japan). […]
molecule,measurement,setting,value
"O=[N+]([O-])c1ccc2c(c1)Cc1ccccc1-2 [2-NF, 2-nitrofluorene, reference compound]",Factor (revertant colonies treated plate / vehicle control plate),[1],9.4
same,Revertant colonies/plate (Mean),"[1]; dose (g/plate): KY-02327 1000, 2-NF 1",178 ± 16 colonies/plate
"[N-]=[N+]=[N-].[Na+] [S.A, Sodium azide, reference compound]",Factor (revertant colonies treated plate / vehicle control plate),[2],5.6
same,Revertant colonies/plate (Mean),"[2]; dose (g/plate): KY-02327 1000, S.A 1",689 ± 20 colonies/plate
"Nc1ccc(S(=O)(=O)Nc2ccnn2-c2ccccc2)cc1 [Sulfaphenazole, reference compound]",inhibition at 10 µM,[3],80.5%
PTH: N‐terminal fragment of PTH (amino acids 1‐34) [reference compound],destroyed trabecular bones (3D micro-CT images),[4]; 4 weeks,rescued
same,"mineral contents of the bone (BMD), femur, micro‐CT",[4]; 4 weeks,significantly increased
same,trabecular bone number,[4]; 4 weeks,increase
same,trabecular separation,[4]; 4 weeks,decrease
same,volume of bone (BV/TV),"[4]; 4 weeks, vs vehicle",increased
same,calcein double‐labeled surface,[4]; 5 days per week for 4 weeks,increased
same,new bone formation (calcein-labeled) in femur,[4]; 5 days per week for 4 weeks,recovered
same,number of osteoblasts,[4]; 5 days per week for 4 weeks,increased
